Activity calls are given as the source filed them. How the calls were made is not given here.
Tested on: rodent lifetime carcinogenesis bioassay, tumor incidence TD50
Assay: chronic cancer bioassays in animals – CPDB, compiled studies (AID 1745844)

Nc1ccc2c(n1)[nH]c1ccccc12
TD50 (mouse, strain CDF1, females, in feed, site: blood vessels, lesion: hemangioendothelial sarcoma, dosed 97 weeks, study length 97 weeks): 381 mg/kg/day | TD50 (mouse, strain CDF1, females, in feed, site: liver, lesion: hepatocellular carcinoma, dosed 97 weeks, study length 97 weeks): 44.7 mg/kg/day | TD50 (mouse, strain CDF1, females, in feed, site: liver, lesion: several types, types named in the paper, dosed 97 weeks, study length 97 weeks): 35.6 mg/kg/day | TD50 (mouse, strain CDF1, females, in feed, site: lung, lesion: adenoma, dosed 97 weeks, study length 97 weeks): 795 mg/kg/day | TD50 (mouse, strain CDF1, females, in feed, site: lung, lesion: several types, types named in the paper, dosed 97 weeks, study length 97 weeks): 1150 mg/kg/day | TD50 (mouse, strain CDF1, males, in feed, site: blood vessels, lesion: hemangioendothelial sarcoma, dosed 97 weeks, study length 97 weeks): 103 mg/kg/day | TD50 (mouse, strain CDF1, males, in feed, site: blood vessels, lesion: several types, types named in the paper, dosed 97 weeks, study length 97 weeks): 82.6 mg/kg/day | TD50 (mouse, strain CDF1, males, in feed, site: liver, lesion: hepatocellular adenoma, dosed 97 weeks, study length 97 weeks): 352 mg/kg/day | TD50 (mouse, strain CDF1, males, in feed, site: liver, lesion: hepatocellular carcinoma, dosed 97 weeks, study length 97 weeks): 225 mg/kg/day | TD50 (mouse, strain CDF1, males, in feed, site: liver, lesion: several types, types named in the paper, dosed 97 weeks, study length 97 weeks): 122 mg/kg/day

CC(O)CN(CC(C)O)N=O (configuration not stated)
TD50 (rat, strain Fischer 344, females, in drinking water, site: esophagus, lesion: carcinoma, dosed 42 weeks, study length 55 weeks): 1.25 mg/kg/day | TD50 (rat, strain Fischer 344, females, in drinking water, site: esophagus, lesion: several types, types named in the paper, dosed 42 weeks, study length 55 weeks): 0.813 mg/kg/day | TD50 (rat, strain Fischer 344, females, in drinking water, site: nasal cavity, lesion: olfactory carcinoma, dosed 42 weeks, study length 55 weeks): 3.04 mg/kg/day | TD50 (rat, strain MRC-Wistar, males, by gavage, site: prostate, lesion: carcinoma, dosed 74 weeks, study length 74 weeks): 437 mg/kg/day | TD50 (rat, strain Wistar, males, in drinking water, site: liver, lesion: hemangioma, dosed 45 weeks, study length 52 weeks): 4.55 mg/kg/day | TD50 (rat, strain Wistar, males, in drinking water, site: liver, lesion: hepatocellular carcinoma, dosed 45 weeks, study length 52 weeks): 2.4 mg/kg/day | TD50 (rat, strain Wistar, males, in drinking water, site: lung, lesion: adenocarcinoma, dosed 45 weeks, study length 52 weeks): 3.36 mg/kg/day | TD50 (rat, strain Wistar, males, in drinking water, site: lung, lesion: adenoma, dosed 45 weeks, study length 52 weeks): 0.881 mg/kg/day | TD50 (rat, strain Wistar, males, in drinking water, site: lung, lesion: carcinoma, combined glandular and squamous type, dosed 45 weeks, study length 52 weeks): 9.48 mg/kg/day

O=[N+]([O-])c1ccc(Nc2ccc(Nc3ccccc3)c(S(=O)(=O)O)c2)c([N+](=O)[O-])c1
TD50 (mouse, strain B6C3F1, females, by gavage, site: liver, lesion: hepatocellular adenoma + hepatocellular carcinoma + neoplastic nodule, dosed 103 weeks, study length 104 weeks): 7550 mg/kg/day | TD50 (mouse, strain B6C3F1, females, by gavage, site: lung, lesion: alveolar/bronchiolar adenoma + alveolar/bronchiolar carcinoma, dosed 103 weeks, study length 104 weeks): 11600 mg/kg/day | TD50 (mouse, strain B6C3F1, females, by gavage, site: lung, lesion: alveolar/bronchiolar adenoma, dosed 103 weeks, study length 104 weeks): 2590 mg/kg/day (inactive) | TD50 (mouse, strain B6C3F1, males, by gavage, site: any site (literature study), lesion: several types, types named in the paper, dosed 103 weeks, study length 104 weeks): 372 mg/kg/day | TD50 (mouse, strain B6C3F1, males, by gavage, site: liver, lesion: hepatocellular carcinoma, dosed 103 weeks, study length 104 weeks): 184 mg/kg/day (inactive) | TD50 (mouse, strain B6C3F1, males, by gavage, site: lung, lesion: alveolar/bronchiolar adenoma + alveolar/bronchiolar carcinoma, dosed 103 weeks, study length 104 weeks): 5860 mg/kg/day | TD50 (rat, strain Fischer 344, females, by gavage, site: any site (literature study), lesion: several types, types named in the paper, dosed 103 weeks, study length 104 weeks): 361 mg/kg/day | TD50 (rat, strain Fischer 344, females, by gavage, site: kidney, lesion: transitional-cell carcinoma, dosed 103 weeks, study length 104 weeks): 1710 mg/kg/day | TD50 (rat, strain Fischer 344, females, by gavage, site: liver, lesion: hepatocellular adenoma + hepatocellular carcinoma + neoplastic nodule, dosed 103 weeks, study length 104 weeks): 5090 mg/kg/day | TD50 (rat, strain Fischer 344, males, by gavage, site: any site (literature study), lesion: several types, types named in the paper, dosed 100 weeks, study length 104 weeks): 270 mg/kg/day (inactive)

O=c1c(CO)c/c(=N/Nc2ccc(S(=O)(=O)O)c3ccccc23)c(=O)/c1=N/Nc1ccc(S(=O)(=O)O)c2ccccc12
TD50 (mouse, strain Tuck, females, in feed, site: all sites, lesion: lymphosarcoma, dosed 80 weeks, study length 80 weeks): 36.3 mg/kg/day (inactive) | TD50 (mouse, strain Tuck, females, in feed, site: liver, lesion: hyperplastic nodule, dosed 80 weeks, study length 80 weeks): 8440 mg/kg/day (inactive) | carcinogen call (mouse, strain Tuck, females, in feed, site: lung, lesion: adenoma, dosed 80 weeks, study length 80 weeks): negative (inactive) | TD50 (mouse, strain Tuck, males, in feed, site: liver, lesion: hyperplastic nodule, dosed 80 weeks, study length 80 weeks): 106000 mg/kg/day (inactive) | carcinogen call (mouse, strain Tuck, males, in feed, site: liver, lesion: liver-cell adenoma, dosed 80 weeks, study length 80 weeks): negative (inactive) | carcinogen call (mouse, strain Tuck, males, in feed, site: lung, lesion: adenoma, dosed 80 weeks, study length 80 weeks): negative (inactive)

CCCCN(CC)C(=O)SCCC
TD50 (mouse, strain B6AKF1, females, oral dosing, site: any site (literature study), lesion: several types, types named in the paper, dosed 76 weeks, study length 76 weeks): 219 mg/kg/day (inactive) | carcinogen call (mouse, strain B6AKF1, females, oral dosing, site: liver, lesion: hepatoma, dosed 76 weeks, study length 76 weeks): negative (inactive) | TD50 (mouse, strain B6AKF1, females, oral dosing, site: lung, lesion: adenoma, dosed 76 weeks, study length 76 weeks): 113 mg/kg/day (inactive) | carcinogen call (mouse, strain B6AKF1, males, oral dosing, site: any site (literature study), lesion: several types, types named in the paper, dosed 76 weeks, study length 76 weeks): negative (inactive) | carcinogen call (mouse, strain B6AKF1, males, oral dosing, site: liver, lesion: hepatoma, dosed 76 weeks, study length 76 weeks): negative (inactive) | carcinogen call (mouse, strain B6AKF1, males, oral dosing, site: lung, lesion: adenoma, dosed 76 weeks, study length 76 weeks): negative (inactive) | TD50 (mouse, strain B6C3F1, females, oral dosing, site: any site (literature study), lesion: several types, types named in the paper, dosed 76 weeks, study length 76 weeks): 251 mg/kg/day (inactive) | carcinogen call (mouse, strain B6C3F1, females, oral dosing, site: liver, lesion: hepatoma, dosed 76 weeks, study length 76 weeks): negative (inactive) | TD50 (mouse, strain B6C3F1, females, oral dosing, site: lung, lesion: adenoma, dosed 76 weeks, study length 76 weeks): 267 mg/kg/day (inactive) | carcinogen call (mouse, strain B6C3F1, males, oral dosing, site: any site (literature study), lesion: several types, types named in the paper, dosed 76 weeks, study length 76 weeks): negative (inactive) | carcinogen call (mouse, strain B6C3F1, males, oral dosing, site: liver, lesion: hepatoma, dosed 76 weeks, study length 76 weeks): negative (inactive) | carcinogen call (mouse, strain B6C3F1, males, oral dosing, site: lung, lesion: adenoma, dosed 76 weeks, study length 76 weeks): negative (inactive)
